Data: the supplement of paper PMC10307832

Tests used:
Test in all cases: relative viability (nuclei count vs DMSO), 5 days (fraction); higher = more cells survive
Ibrutinib + Linsitinib = compound: C=CC(=O)N1CCC[C@@H](n2nc(-c3ccc(Oc4ccccc4)cc3)c3c(N)ncnc32)C1 [Ibrutinib] + C[C@]1(O)C[C@@H](c2nc(-c3ccc4ccc(-c5ccccc5)nc4c3)c3c(N)nccn32)C1 [Linsitinib] (partner 1 µM)
Procedure, shortened: (§1)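 Relative viability was taken as the ratio of nuclei in treated wells to nuclei in vehicle wells. Lung cancer cell lines in 1536-well plates received compounds by pin tool one day after seeding, either one drug alone or a fixed anchor-drug dose plus five library-drug doses (not always all listed) in √10 steps. Nuclei were counted on 4× images after 5 days of treatment, and values are medians of duplicate plates.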

BMX-IN-1 + Foretinib = compound: C=CC(=O)Nc1cc(-n2c(=O)ccc3cnc4ccc(-c5ccc(NS(C)(=O)=O)cc5)cc4c32)ccc1C [BMX-IN-1] + COc1cc2c(Oc3ccc(NC(=O)C4(C(=O)Nc5ccc(F)cc5)CC4)cc3F)ccnc2cc1OCCCN1CCOCC1 [Foretinib] (partner 0.25 µM)
Procedure, shortened: as §1

BMX-IN-1 + Decitabine = compound: C=CC(=O)Nc1cc(-n2c(=O)ccc3cnc4ccc(-c5ccc(NS(C)(=O)=O)cc5)cc4c32)ccc1C [BMX-IN-1] + Nc1ncn([C@H]2C[C@H](O)[C@@H](CO)O2)c(=O)n1 [Decitabine] (partner 2 µM)
Procedure, shortened: as §1

PAC-1 + Alpelisib = compound: C=CCc1cccc(/C=N/NC(=O)CN2CCN(Cc3ccccc3)CC2)c1O [PAC-1] + Cc1nc(NC(=O)N2CCC[C@H]2C(N)=O)sc1-c1ccnc(C(C)(C)C(F)(F)F)c1 [Alpelisib] (partner 2 µM)
Procedure, shortened: as §1

Cell Line	relative viability (Ibrutinib + Linsitinib; first compound 0.005 µM)	relative viability (Ibrutinib + Linsitinib; first compound 0.01581 µM)	relative viability (Ibrutinib + Linsitinib; first compound 0.05 µM)	relative viability (Ibrutinib + Linsitinib; first compound 0.1581 µM)	relative viability (Ibrutinib + Linsitinib; first compound 0.5 µM)	relative viability (BMX-IN-1 + Foretinib; first compound 0.02 µM)	relative viability (BMX-IN-1 + Foretinib; first compound 0.2 µM)	relative viability (BMX-IN-1 + Foretinib; first compound 0.6325 µM)	relative viability (BMX-IN-1 + Foretinib; first compound 2 µM)	relative viability (BMX-IN-1 + Decitabine; first compound 0.02 µM)	relative viability (BMX-IN-1 + Decitabine; first compound 0.2 µM)	relative viability (BMX-IN-1 + Decitabine; first compound 0.6325 µM)	relative viability (BMX-IN-1 + Decitabine; first compound 2 µM)	relative viability (PAC-1 + Alpelisib; first compound 0.02 µM)	relative viability (PAC-1 + Alpelisib; first compound 0.06325 µM)	relative viability (PAC-1 + Alpelisib; first compound 0.2 µM)	relative viability (PAC-1 + Alpelisib; first compound 2 µM)
SK-LU-1	0.776	1.02	1.21	1.21	1.04	0.92	1.04	0.785	0.76	0.789	0.679	0.834	0.679	0.901	1	0.919	0.854
PC-3 [JPC-3]	0.917	0.93	0.956	0.955	0.619	1.12	1.16	1.09	1	0.84	0.754	0.816	0.885	1	1.09	0.98	0.972
ChaGo-K-1	–	–	–	–	–	1.09	0.938	0.821	0.915	0.512	0.549	0.551	0.519	–	–	–	–
NCI-H3122	–	1.03	1.03	0.992	1.07	1	0.951	0.957	0.984	0.421	0.33	0.548	0.514	0.66	0.808	0.837	0.747
NCI-H1703	0.178	0.676	0.632	0.467	0.627	0.358	0.351	0.298	0.322	–	–	–	–	0.364	0.414	0.356	0.344
NCI-H2126	–	0.66	0.705	0.732	0.539	1.15	1.21	1.32	1.25	0.522	0.515	0.59	0.601	0.756	0.729	0.717	0.703
NCI-H1993	0.738	0.698	0.694	–	0.647	0.882	0.816	0.731	0.755	0.678	0.525	0.53	0.631	0.701	0.645	0.678	0.672
NCI-H1793	–	0.66	0.652	0.797	0.509	0.856	0.856	0.656	0.699	0.45	0.535	0.471	0.589	0.681	0.615	0.894	0.621
NCI-H441	0.64	0.615	0.585	0.518	0.495	1.26	1.05	1.14	0.876	0.256	0.246	0.321	0.233	0.629	0.671	0.679	0.57
H3255	0.925	0.772	0.685	1.06	0.227	0.859	0.989	0.925	0.99	0.784	0.631	0.812	0.694	0.823	0.78	0.702	0.717
NCI-H2087	1.07	1.06	–	1.02	0.943	1.25	1.12	1.37	1.26	0.29	0.343	0.239	0.325	1.07	1.02	1	1.1
NCI-H661	0.477	0.48	0.543	0.546	0.355	1.16	0.961	1.11	1.02	0.617	0.528	0.634	0.525	0.581	0.56	0.671	0.687
COR-L 105	0.739	0.811	0.709	0.914	0.321	1.12	1.2	1.37	1.17	0.563	0.671	0.654	0.672	0.736	1.22	1.04	1.24
BEN	0.766	0.885	0.853	0.851	0.883	0.635	0.698	0.619	0.819	0.7	0.755	0.792	0.674	1.04	1.1	1.09	0.965
NCI-H2342	–	–	–	–	–	1.06	1.04	1.04	1.24	0.698	0.751	0.748	0.742	–	–	–	–
NCI-H2170	–	–	–	–	–	1.23	0.975	0.993	0.987	0.454	0.499	0.469	0.495	0.746	0.859	0.752	0.7
NCI-H1650	–	–	–	–	–	1.05	1.46	1.2	1.17	0.438	0.385	0.473	0.548	–	–	–	–
NCI-H522	–	–	–	–	–	–	–	–	–	0.692	0.633	0.725	0.624	–	–	–	–
NCI-H1563	1.37	1.08	1.33	1.16	1.06	0.922	0.956	0.914	0.906	–	–	–	–	0.98	0.935	0.922	1.02
NCI-H1623	–	–	–	–	–	0.853	1.02	0.798	0.788	–	–	–	–	–	–	–	–
HCC-44	0.682	0.591	0.673	0.732	0.645	–	–	–	–	0.988	0.969	1.01	0.981	0.782	0.875	0.774	0.855
IA-LM	0.397	0.658	0.453	0.512	0.56	1.53	1.31	1.15	1.21	–	–	–	–	0.955	0.613	0.619	0.832
EBC-1	0.848	1	0.825	0.864	0.952	0.0974	0.114	0.144	0.101	–	–	–	–	0.769	0.808	0.736	0.809
